Laboratory results from ChEMBL document CHEMBL4425168, “Dehydrozingerone Inspired Styryl Hydrazine Thiazole Hybrids as Promising Class of Antimycobacterial Agents” (ACS Med Chem Lett, 2016).
Converted amounts (≈) assume the structure as drawn.

Tests used:
[1] = test system: Mycobacterium tuberculosis; experiment: Antitubercular activity against Mycobacterium tuberculosis H37Rv by radiometric assay; type: functional
[2] = test system: Mycobacterium tuberculosis; experiment: Antitubercular activity against Mycobacterium tuberculosis H37Rv assessed as bacterial growth inhibition under aerobic conditions after 5 days by dual read-out fluorescence assay; type: functional, organism-based; conditions: 120 h
[3] = test system: Mycobacterium tuberculosis; experiment: Antitubercular activity against Mycobacterium tuberculosis H37Rv RIF-R2 ATCC 35828 after 5 days; type: functional, organism-based; conditions: H37Rv RIF-R2 ATCC 35828, 120 h
[4] = test system: Mycobacterium tuberculosis; experiment: Antitubercular activity against Mycobacterium tuberculosis H37Rv INH-R2 ATCC 35822 after 5 days; type: functional, organism-based
[5] = test system: Mycobacterium tuberculosis; experiment: Antitubercular activity against Mycobacterium tuberculosis H37Rv expressing luxABCDE infected in differentiated human THP1 cells assessed as reduction in bacteria infected cells after 72 hrs by luminescence assay; type: functional, organism-based; conditions: THP-1, 72 h
[6] = test system: Mycobacterium tuberculosis; experiment: Antitubercular activity against oxygen-deprived Mycobacterium tuberculosis H37Rv assessed as bacterial growth inhibition preincubated for 10 days under anaerobic conditions followed by incubation under aerobic conditions for 28 hrs by LOR assay; type: functional, organism-based
[7] = test system: Mycobacterium tuberculosis; experiment: Antitubercular activity against oxygen-deprived Mycobacterium tuberculosis H37Rv assessed as bacterial growth inhibition incubated for 5 days under aerobic conditions by LOR assay; type: functional, organism-based; conditions: 120 h
THP-1 = experiment: Cytotoxicity in differentiated human THP1 cells assessed as reduction in cell viability after 3 days by CellTiter-Glo assay; type: cell-based; conditions: THP-1, 72 h
[8] = test system: Mycobacterium tuberculosis; experiment: Bactericidal activity against replicating Mycobacterium tuberculosis H37Rv assessed as reduction in colony forming units incubated for 21 days; type: functional; conditions: 504 h
Mycobacterium avium = experiment: Antibacterial activity against Mycobacterium avium assessed as reduction in bacterial metabolic activity after 5 days by Alamar blue assay; type: functional; conditions: 120 h
[9] = test system: Mycobacterium tuberculosis; experiment: Antitubercular activity against Mycobacterium tuberculosis H37Rv assessed as bacterial growth inhibition in aerobic conditions by dual read out fluorescence assay; type: functional
[10] = test system: Mycobacteroides abscessus; experiment: Antibacterial activity against Mycobacterium abscessus assessed as bacterial growth inhibition after 3 days by MABA method; type: functional; conditions: 72 h
[11] = test system: Mycobacterium tuberculosis; experiment: Antitubercular activity against Mycobacterium tuberculosis H37Rv after 7 days by broth macrodilution assay; type: functional; conditions: 168 h
[12] = test system: Mycobacterium tuberculosis; experiment: Antitubercular activity against Mycobacterium tuberculosis H37Rv by microplate Alamar blue assay; type: functional
[13] = Mycobacterium tuberculosis, H37Rv INH-R2 ATCC 35822, 120 h

SMILES	MIC [2] [µM]	IC50 [3] [µM]	IC90 [3] [µM]	MIC [3] [µM]	IC50 [4, 13] [µM]	IC90 [4, 13] [µM]	MIC [4, 13] [µM]	other results
O=[N+]([O-])c1ccc2nc(-c3ccccc3-c3nnc(/C=C/c4ccccc4)o3)[nH]c2c1								MIC [1]: 12.5 µg/mL (≈ 30.5 µM)
COc1ccc(/C=C/C(C)=N/Nc2nc(-c3cc(Br)ccc3O)cs2)cc1OC	1.5 to 200 (≈ 0.712 to 94.9 µg/mL)							
C[C@H]1COc2c(N3CCN(C)CC3)c(F)cc3c(=O)c(C(=O)O)cn1c23.C[C@H]1COc2c(N3CCN(C)CC3)c(F)cc3c(=O)c(C(=O)O)cn1c23.O [LEVOFLOXACIN]		0.6	1.2	1.1	0.84	1.4	1.4	
COc1ccc(/C=C/C(C)=N/Nc2nc(-c3ccccc3)cs2)cc1OC	1.5 to 200 (≈ 0.569 to 75.9 µg/mL)							
COc1ccc(/C=C/C(C)=N/Nc2nc(-c3ccc(Br)cc3)cs2)cc1OC	> 200							
COc1ccc(/C=C/C(C)=N/Nc2nc(-c3ccc(N)cc3)cs2)cc1OC	1.5 to 200 (≈ 0.592 to 78.9 µg/mL)	0.76	9.2	6.3 (≈ 2.49 µg/mL)	0.38	1.7	1.5 (≈ 0.592 µg/mL)	IC50 [5]: < 0.098 µM; IC50 [6]: 0.063 µM; MIC [6]: 46 µM (≈ 18.1 µg/mL); IC50 [7]: 0.097 µM; MIC [7]: 0.28 µM (≈ 0.11 µg/mL); IC50 (THP-1): 11 µM; MBC [8]: 12 µM (≈ 4.73 µg/mL); MIC (Mycobacterium avium): 100 µM (≈ 39.5 µg/mL)
COc1ccc(-c2csc(N/N=C/c3ccc4c(c3)c3ccccc3n4C)n2)cc1OC								MIC [9]: 21 µM (≈ 9.29 µg/mL)
COc1ccc(O)c(-c2csc(N/N=C(C)/C=C/c3ccc(OC)c(OC)c3)n2)c1	88 (≈ 37.4 µg/mL)							IC50 [2]: 23 µM
COc1ccc(/C=C/C(C)=N/Nc2nc(-c3ccc(Cl)cc3)cs2)cc1OC	1.5 to 200 (≈ 0.621 to 82.8 µg/mL)							
CO[C@H]1/C=C/O[C@@]2(C)Oc3c(C)c(O)c4c(O)c(c(/C=N/N5CCN(C)CC5)c(O)c4c3C2=O)NC(=O)/C(C)=C\C=C\[C@H](C)[C@H](O)[C@@H](C)[C@@H](O)[C@@H](C)[C@H](OC(C)=O)[C@@H]1C [RIFAMPIN]	1.5 to 200 (≈ 1.23 to 165 µg/mL)	> 50	> 50	> 50	0.0047		0.0065 (≈ 0.00535 µg/mL)	MIC (Mycobacterium avium): 0.1 µM (≈ 0.0823 µg/mL); IC90 [4]: 0.012 µM
COc1ccc(/C=C/C(C)=N/Nc2nc(-c3ccc(OC)c(OC)c3)cs2)cc1OC	16 (≈ 7.03 µg/mL)	19	> 200	46 (≈ 20.2 µg/mL)	7.1	12	13 (≈ 5.71 µg/mL)	MIC [10]: > 200 µM; IC50 (THP-1): 38 µM; IC50 [2]: 7.4 µM; MIC (Mycobacterium avium): > 200 µM
COC(=O)c1nc(N)sc1Cc1ccccc1								MIC [11]: 0.06 µg/mL (≈ 0.242 µM)
COc1ccc(/C=C/C(C)=N/Nc2nc(-c3ccc(C)cc3)cs2)cc1OC	1.5 to 200 (≈ 0.59 to 78.7 µg/mL)							
CC(=O)c1nc(/C=C/c2ccccc2)c2ncn(Cc3ccccc3)c2n1								MIC [12]: 6.25 µM (≈ 2.22 µg/mL)
COc1ccc(/C=C/C(C)=N/NC(N)=S)cc1OC	1.5 to 200 (≈ 0.419 to 55.9 µg/mL)	1.2	5.9	4.8 (≈ 1.34 µg/mL)	0.79	2.9	2.5 (≈ 0.698 µg/mL)	IC50 [5]: < 0.098 µM; IC50 [6]: 0.19 µM; MIC [6]: 29 µM (≈ 8.1 µg/mL); IC50 [7]: 0.15 µM; MIC [7]: 0.5 µM (≈ 0.14 µg/mL); MIC [10]: > 200 µM; IC50 (THP-1): 11 to 50 µM; MBC [8]: 6 µM (≈ 1.68 µg/mL); IC50 [2]: 0.98 µM; MIC (Mycobacterium avium): > 200 µM
COc1ccc(/C=C/C(C)=N/Nc2nc(-c3cc(F)ccc3O)cs2)cc1OC	1.5 to 200 (≈ 0.62 to 82.7 µg/mL)							
COc1ccc(/C=C/C(C)=N/Nc2nc(-c3cccc(C(F)(F)F)c3)cs2)cc1OC	> 200							
COc1ccc(-c2csc(N/N=C(C)/C=C/c3ccc(OC)c(OC)c3)n2)cc1	15 (≈ 6.14 µg/mL)	8.7	> 50	31 (≈ 12.7 µg/mL)	8	> 50	12 (≈ 4.91 µg/mL)	MIC [10]: > 200 µM; IC50 (THP-1): 11 to 50 µM; IC50 [2]: 8.4 µM; MIC (Mycobacterium avium): > 200 µM
COc1ccc(/C=C/C(C)=N/Nc2nc(-c3ccc([N+](=O)[O-])cc3)cs2)cc1OC	> 200							
COc1ccc(/C=C/C(C)=N/Nc2nc(-c3c(OC)cccc3OC)cs2)cc1OC	28 (≈ 12.3 µg/mL)	10	> 25	41 (≈ 18 µg/mL)	5.6	> 25	19 (≈ 8.35 µg/mL)	MIC [10]: > 100 µM; IC50 (THP-1): 11 to 50 µM; IC50 [2]: 6.6 µM; MIC (Mycobacterium avium): > 100 µM
COc1ccc(/C=C/C(C)=N/Nc2nc(-c3ccccc3O)cs2)cc1OC	40 (≈ 15.8 µg/mL)							IC50 [2]: 24 µM
NNC(=O)c1ccncc1 [ISONIAZID]		0.54	0.6	0.62 (≈ 0.085 µg/mL)	> 200	> 200	> 200	
COc1ccc(/C=C/C(C)=N/Nc2nc(-c3ccc(Cl)c(Cl)c3)cs2)cc1OC	> 200							
